From paper PMC6651038, “16-Hydroxy-Lycopersene, a Polyisoprenoid Alcohol Isolated from Tournefortia hirsutissima, Inhibits Nitric Oxide Production in RAW 264.7 Cells and Induces Apoptosis in Hep3B Cells” (Molecules, 2019)
Where two headings read alike, the source gives them in different places.

Key:
[1] = system: nitric oxide (NO) production in LPS-stimulated RAW 264.7 cells; assay: NO (nitrite, Griess) production in LPS-stimulated RAW 264.7 cells; assay type: cell-based, murine; conditions: for inhibitory activity on NO production: highest evaluated concentration (60 µg/mL)
Procedure: (§1) RAW 264.7 cells (murine macrophage cell line) were purchased from ATCC (Georgetown, Washington, DC, USA ) and cultured in Advanced DMEM/F12 medium (Gibco, Waltham, MA USA) supplemented with 1% GlutaMAX (Gibco) and 3.5% inactivated FBS (Gibco), without antibiotics at 37 °C in 5% CO2.
RAW 264.7 cells were seeding (2 × 10^4 cells in 200 µL) and incubated for 24 h, then, were treated with various concentrations of the investigated samples, indomethacin (30 µg/mL) or DMSO (0.4%, v/v) for 2 h followed by stimulation with 1 µg/mL of LPS (from E. coli purchased from Sigma Aldrich, St. Louis, MO, USA) for 21 h. The nitrite is a stable metabolite of the NO and its concentration was calculated with Griess reagent and the aid of a standard curve of NaNO2. Cell-free supernatants (50 µL) were collected and incubated for 10 min with the Griess reagent (50 µL of 0.1% N-(1-napthyl)-ethylenediamine dihydrochloride and 50 µL of 1% sulphanilamide both in 2.5% phosphoric acid) at room temperature and absorbance at 540 nm was measured using a microplate reader.

[2] = system: RAW 264.7 cells; assay: Cell viability of RAW 264.7 cells (MTS); assay type: cell-based, murine; conditions: at 30 and 60 µg/mL
Procedure: as §1
The cell viability was determined by using MTS from Promega. The cells (1 × 10^4 cells per well) were seeding in 96-well plates in 100 µL of medium and were incubated for 24 h. Then, the cells were treated with various concentrations of the investigated samples, positive control (etoposide, 30 µg/mL) or vehicle (0.4% DMSO in culture medium) and incubated for 24 h. Subsequently, 20 µL of MTS was added at 20 h of treatment for 4 h, after that, the absorbance at 490 nm was measured using a microplate reader (Biotek, Winooski, VT, USA). The absorbance of control cells (untreated) was taken as 100% viability. The concentration of DMSO together with the treatments, in the culture medium was ≤ 0.4%, v/v.

[3] = system: HeLa; assay: Antiproliferative MTS assay, HeLa; assay type: cell-based; conditions: Homo sapiens, 72 h
Procedure: (§2) PC3 (prostate), HeLa (cervical) and Hep3B and HepG2 (hepatocellular) human cancer cell lines were purchased from ATCC (Manassas, VA, USA). We also included immortalized human hepatocyte cell line (IHH) as a control of non-cancerous cells. PC3 was grown in RPMI-1640 medium (Sigma Aldrich, St. Louis, MO, USA), while Hep3B, HepG2, HeLa and IHH in DMEM medium (Invitrogen, Thermo Fisher Scientific, Waltham, MA, USA) supplemented with 10% SFB and 2 mM glutamine, all cultures were incubated at 37 °C in 5% CO2.
(§3) Cells (4 × 10^3 cells/well) were seeding in 96-well plates. The cells were treated with the investigated samples (at 0.01, 0.1, 1, 10 and 100 µg/mL) and incubated at 37 °C in 5% CO2 for 72 h. PTX was used as positive control. The number of viable cells in proliferation was checked by MTS assay, following the manufacturer’s instructions. The absorbance was measured at 450 nm using an automated ELISA reader (Promega, Madison, WI, USA).

[4] = system: PC3; assay: Antiproliferative MTS assay, PC3; assay type: cell-based; conditions: Homo sapiens, PC-3, 72 h
Procedure: as §2, §3

[5] = system: HepG2; assay: Antiproliferative MTS assay, HepG2; assay type: cell-based; conditions: Homo sapiens, 72 h
Procedure: as §2, §3

[6] = system: Hep3B; assay: Antiproliferative MTS assay, Hep3B; assay type: cell-based; conditions: Homo sapiens, 72 h
Procedure: as §2, §3

[7] = system: immortalized human hepatocyte cell line (IHH); assay: Antiproliferative MTS assay, IHH non-cancerous cells; assay type: cell-based; conditions: 72 h
Procedure: as §2, §3

[8] = system: Hep3B cells; assay: Cell cycle analysis by flow cytometry, Hep3B; assay type: cell-based, human; conditions: treatment at IC50, 72 h, control 0.0%
Procedure: (§4) PC3, Hep3B, HepG2 and HeLa cells (1.25 × 10^5 cells/well) were seed in 6-well plates and allowed to attach overnight at 37 °C in 5% CO2. Exponential growing cells were treated with Compound 1 to the IC50 values for 72 h. PTX (10 nM) was included as a positive control of the G2/M phase arrest. Cells from each treatment were trypsinized and collected into single cell suspensions, centrifuged, and fixed in cold ethanol (70%) overnight at −20 °C. The cells were then treated with 0.01 M RNase (Sigma Aldrich, St. Louis, MO, USA) and stained with 7.5 µg/mL PI (Invitrogen) for 30 min in the dark. The percentage of cells in sub-G1, G1, S, and G2/M phases was analyzed with a flow cytometer (Becton Dickinson, FACS Calibur; Beckman Coulter, Inc., Brea, CA, USA) using 10,000 cells for each sample. Data obtained from the flow cytometer were analyzed using the FlowJo Software (Tree Star, Inc., Ashland, OR, USA).

[9] = system: HepG2 cells; assay: Cell cycle analysis by flow cytometry, HepG2; assay type: cell-based, human; conditions: HepG2, treatment at IC50, 72 h; control 1.5%
Procedure: as §4

[10] = system: PC3 cells; assay: Cell cycle analysis by flow cytometry, PC3; assay type: cell-based, human; conditions: PC3, treatment at IC50, 72 h; control 0.9%
Procedure: as §4

[11] = system: Hep3B cells; assay: Annexin V-FITC/PI staining, flow cytometry; assay type: cell-based, human; conditions: Compound 1 21.3 µM, PTX 20 nM, 72 h
Procedure: Apoptosis was evaluated using Annexin V Apoptosis Detection Kit FITC (Thermo Fisher Scientific, CA, USA). Hep3B cells (2.5 × 10^5 cells) were treated with 1 (21.31 µM). PTX (20 nM) was used as positive control of apoptosis. After 72 h, the cells were harvested and washed twice with ice-cold PBS (0.01 M, pH 7.2). After 5 min of centrifuging at 200 g. Annexin V-FITC/PI staining were performed according to manufacturer’s instruction. Cell apoptosis was analyzed on flow cytometer (10,000 cells for each sample). Data obtained from the flow cytometer were analyzed using the FlowJo Software.

[12] = system: Hep3B cells; assay: Cell morphology, acridine orange/ethidium bromide staining; assay type: cell-based, human; conditions: 21.3 µM (12 µg/mL), 72 h
Procedure: The morphological changes of Hep3B cells exposed to Compound 1 were evaluated using acridine orange (AO) and ethidium bromide (EB) staining. In brief, Hep3B cells (2 × 10^4 cells per well) were seeding in 24-well plates and exposed with Compound 1 at 21.31 µM for 72 h. After 72 h of treatment cells were exposed to a solution of 100 µg/mL AO and 100 µg/mL EB, according to reported procedures. For controls, the cells were grown 71 h before being treated 30 min with H2O2 (positive control of apoptosis) or being boiling in water at 95 °C for 10 s (positive control of necrosis). Then, the cells were observed using a fluorescence microscope.

[13] = system: Bcl-2; assay: RT-PCR, Bcl-2 mRNA in Hep3B cells; assay type: cell-based, human; conditions: 21.3 µM, 72 h, vs non-treated control
Procedure: (§5) RNA was quantified using NanoDrop ND-1000 (Thermo Scientific, Waltham, MA, USA) and the RNA content was normalized. The RT-PCR was performed using a One-Step RT-PCR Kit with Thermo-Start Taq (Thermo Scientific, Waltham, MA, USA) following the manufacturer's instructions. PCR was performed with the following primers sequences: Bcl-2 ([NT]), Bax ([NT] ([NT]). Sequencing was performed at the Instituto de Biotecnología of Universidad Nacional Autónoma de México.

[14] = system: Bax; assay: RT-PCR, Bax mRNA in Hep3B cells; assay type: cell-based, human; conditions: 21.3 µM, 72 h, vs non-treated control
Procedure: as §5

[15] = system: caspase 3/7; assay: Caspase-Glo 3/7 assay in Hep3B cells; assay type: cell-based, human; conditions: 21.3 µM (12 µg/mL), 72 h
Procedure: Hep3B cells (8 × 10^3 cells per well) were plated on 96-well plates and treated with 1 at 21.31 µM for 72 h. After treatment, the caspase 3/7 activity was determined using the luminescent Caspase-Glo® 3/7 Assay (Promega, Madison, WI, USA) following the manufacturer’s instructions. The results were represented as relative units of luminescence.

[16] = system: U937 cells; conditions: cited from earlier work
[17] = system: TPA-induced acute edema in mice ear; assay: TPA-induced ear edema in mice; assay type: in vivo; conditions: 1 mg/ear topical, male ICR mice, 6 h after TPA
Procedure: Edema in mice ear was induced with TPA purchased from Sigma Aldrich (St. Louis, MO, USA), following the method previously described. All animals were treated in accordance with Official Mexican Rule of Technical Specifications for the Production, Care and Use of Laboratory Animals (NOM-062-ZOO-1999 Guidelines) and international ethical guidelines for the care and use of experimental animals. The experimental protocol was authorized by the local Health Research Committee (Instituto Mexicano del Seguro Social (IMSS)). The experiments were carried out with male ICR mice weighing between 25–30 g (five animals per treatment). […] The treatments were applied topically on right ear and vehicle on left ear, thereafter, the edema was induced by administration topically of TPA (2.5 µg) over both ears. Six hours after administration of TPA, the animals were sacrificed by cervical dislocation. Circular sections 6 mm in diameter were taken from both the treated and non-treated ears and weighed to determine the inflammation.

[18] = system: pro-inflammatory cytokines; set-up: method as in PMID 27921103; conditions: 40 µM; via heme oxygenase-1 induction; cited from earlier work
[19] = 6 µM, mediated by caspase-3-like (CPP32-like) activation

| IC50 [3] [µM] | IC50 [4] [µM] | IC50 [5] [µM] | IC50 [6] [µM] | Molecule | IC50 [7] [µM] | also measured |
| --- | --- | --- | --- | --- | --- | --- |
| 37.3 ± 3.5 | 32 ± 4.4 | 26.6 ± 3.5 | 21.3 ± 3.5 | CC(C)=CCC/C(C)=C/CC/C(C)=C/CC/C(C)=C/C[C@@H](O)/C=C(\C)CC/C=C(\C)CC/C=C(\C)CCC=C(C)C [Compound 1, (6E,10E,14E,18E,22E,26E)-2,6,10,14,19,23,27,31-octamethyldotriaconta-2,6,10,14,18,22,26,30-octaen-16R-ol] | 88.8 ± 8.9 | inhibition at 25.6 µM ([1]; Mus musculus, RAW264.7, 14.4 µg/mL (25.6 µM)): 28.6 ± 1.81%; effect on cell viability of RAW 264.7 cells [2]: decreased the cell viability; population in sub-G1 phase [8]: 18.5%; population in sub-G1 phase [9]: 14.8%; population in sub-G1 phase [10]: 19.0%; percentage of early phase apoptosis cells [11]: 22.6%; morphological changes (AO/EB fluorescence microscopy) [12]: apoptotic bodies formation and clear condensation of chromatin; Bcl-2 transcripts [13]: inhibition of Bcl-2; Bax transcripts [14]: increased Bax transcripts; Bax/Bcl-2 ratio [14]: increasing the Bax/Bcl-2 ratio; caspase 3/7 activation [15]: statistically significant increase in caspase 3/7 activation |
| 95.7 ± 12 | 74.2 ± 5 | 76.6 ± 6 | 50.3 ± 5.9 | CC(C)=CCC/C(C)=C/CC/C(C)=C/CC/C(C)=C/CC/C(C)=C\CC/C(C)=C\CC/C(C)=C\CC/C(C)=C\CC/C(C)=C\CC/C(C)=C\CC/C(C)=C\CC/C(C)=C\CO [Compound 2, (Z8,E3,ω)-dodecaprenol] | 76.6 ± 6 | inhibitory activity on NO production [1]: negligible inhibitory activity |
| 84.1 ± 8.9 | 76.4 ± 6.6 | 74.2 ± 5.5 | 69.7 ± 5.5 | CC(C)=CCC/C(C)=C/CC/C(C)=C/CC/C(C)=C/CC/C(C)=C\CC/C(C)=C\CC/C(C)=C\CC/C(C)=C\CC/C(C)=C\CC/C(C)=C\CC/C(C)=C\CC/C(C)=C\CC/C(C)=C\CO [Compound 3, (Z9,E3,ω)-tridecaprenol] | 74.1 ± 5.5 | inhibitory activity on NO production [1]: negligible inhibitory activity |
| 0.01 ± 0.002 | 0.0154 ± 0.0035 | 0.0065 ± 0.0007 | 0.008 ± 0.001 | CC(=O)O[C@H]1C(=O)[C@@]2(C)[C@H]([C@H](OC(=O)c3ccccc3)[C@]3(O)C[C@H](OC(=O)[C@H](O)[C@@H](NC(=O)c4ccccc4)c4ccccc4)C(C)=C1C3(C)C)[C@]1(OC(C)=O)CO[C@@H]1C[C@@H]2O [Paclitaxel, reference compound] | 0.08 ± 0.005 | – |
| – | – | – | – | CC(C)=CCC/C(C)=C/CC/C(C)=C/CC/C(C)=C/CC/C(C)=C/CC/C(C)=C/CC/C(C)=C/CC/C(C)=C\CC/C(C)=C/CCC(C)CCOP(=O)(O)O (stereo not drawn) [dihydrodecaprenyl phosphates, dihydrodecaprenyl phosphate] | – | apoptosis in U937 cells [16, 19]: induced apoptosis |
| – | – | – | – | COc1ccc2c(c1)c(CC(=O)O)c(C)n2C(=O)c1ccc(Cl)cc1 [indomethacin, reference compound] | – | edema inhibition [17]: 87.6 ± 0.4%; inhibition at 30 µg/mL ([1]; Mus musculus, RAW264.7, 30 µg/mL): 54.6 ± 8.9% |
| – | – | – | – | CC(C)=CCC/C(C)=C/CC/C(C)=C/CC/C(C)=C/CC/C(C)=C/CC/C(C)=C/CC/C(C)=C/CC/C(C)=C/CC/C(C)=C/CO [solanesol] | – | production of pro-inflammatory cytokines [18]: suppresses the production of pro-inflammatory cytokines |
| – | – | – | – | Dihydroheptaprenyl phosphate | – | apoptosis in U937 cells [16, 19]: induced apoptosis |
| – | – | – | – | Dolichyl phosphate | – | apoptosis in U937 cells ([16]; 8 µg/mL, by the MAP kinase cascade): induced apoptosis |
